Literature values, collected in patent publication US20120128764A1, “CONTROLLED-RELEASE COMPOSITIONS COMPRISING A PROTON PUMP INHIBITOR” (Aptalis Pharmatech, Inc., priority 2009, published 2012).

Tests used:
[1] = not given; remark: listed apart in the source

solubility in phosphate buffer (phosphate buffer at pH 7.4) | solubility in water (water) | mean Tmax ([1]; after oral administration) | half-life (t1/2) ([1]; elimination) [h] | accumulation upon multiple dosing ([1]; multiple dosing) | dose proportionality of Cmax and AUC ([1]; over 10 mg to 80 mg doses) | SMILES
very slightly soluble | freely soluble | – | – | – | – | COc1ccnc(C[S+]([O-])c2nc3ccc(OC(F)F)cc3[nH]2)c1OC (stereo not drawn) [Pantoprazole sodium sesquihydrate]
– | – | approximately 90 minutes | 1.8 | does not accumulate | dose proportional | COc1ccnc(C[S+]([O-])c2nc3ccc(OC(F)F)cc3[nH]2)c1OC (stereo not drawn) [Pantoprazole, 5-(difluoromethoxy)-2-[(3,4-dimethoxypyridin-2-yl)methylsulfinyl]-3H-benzoimidazole]
